Literature values, collected in patent US20220333071A1, “METHODS OF MAKING, EXPANDING AND PURIFYING MIDBRAIN DOPAMINERGIC PROGENITOR CELLS” (BrainXell, Inc., priority 2021, published 2022).

Assays:
[1] = biological target: T1, ALK5 (Homo sapiens, UniProt P36897)
T1 sequence (P36897 34-503): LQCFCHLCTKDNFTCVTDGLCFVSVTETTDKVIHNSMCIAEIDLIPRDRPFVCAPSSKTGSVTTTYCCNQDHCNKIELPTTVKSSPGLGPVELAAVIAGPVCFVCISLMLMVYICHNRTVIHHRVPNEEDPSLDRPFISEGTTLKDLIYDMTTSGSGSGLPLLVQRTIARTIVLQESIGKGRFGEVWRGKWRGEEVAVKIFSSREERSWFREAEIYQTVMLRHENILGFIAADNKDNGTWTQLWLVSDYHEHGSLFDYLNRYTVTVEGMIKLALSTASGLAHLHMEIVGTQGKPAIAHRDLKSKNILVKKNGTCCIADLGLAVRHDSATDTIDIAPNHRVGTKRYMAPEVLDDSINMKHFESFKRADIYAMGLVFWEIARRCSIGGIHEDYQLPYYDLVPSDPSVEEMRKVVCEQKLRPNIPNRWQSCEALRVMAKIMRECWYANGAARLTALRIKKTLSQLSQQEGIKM

[2] = test system: BMP4-induced phosphorylation of Smads 1, 5 and 8; conditions: HEK293 cells
[3] = biological target: KDR (VEGFR-2) (Homo sapiens, UniProt P35968)
Chain of KDR (VEGFR-2) (P35968 20-1356, species assumed): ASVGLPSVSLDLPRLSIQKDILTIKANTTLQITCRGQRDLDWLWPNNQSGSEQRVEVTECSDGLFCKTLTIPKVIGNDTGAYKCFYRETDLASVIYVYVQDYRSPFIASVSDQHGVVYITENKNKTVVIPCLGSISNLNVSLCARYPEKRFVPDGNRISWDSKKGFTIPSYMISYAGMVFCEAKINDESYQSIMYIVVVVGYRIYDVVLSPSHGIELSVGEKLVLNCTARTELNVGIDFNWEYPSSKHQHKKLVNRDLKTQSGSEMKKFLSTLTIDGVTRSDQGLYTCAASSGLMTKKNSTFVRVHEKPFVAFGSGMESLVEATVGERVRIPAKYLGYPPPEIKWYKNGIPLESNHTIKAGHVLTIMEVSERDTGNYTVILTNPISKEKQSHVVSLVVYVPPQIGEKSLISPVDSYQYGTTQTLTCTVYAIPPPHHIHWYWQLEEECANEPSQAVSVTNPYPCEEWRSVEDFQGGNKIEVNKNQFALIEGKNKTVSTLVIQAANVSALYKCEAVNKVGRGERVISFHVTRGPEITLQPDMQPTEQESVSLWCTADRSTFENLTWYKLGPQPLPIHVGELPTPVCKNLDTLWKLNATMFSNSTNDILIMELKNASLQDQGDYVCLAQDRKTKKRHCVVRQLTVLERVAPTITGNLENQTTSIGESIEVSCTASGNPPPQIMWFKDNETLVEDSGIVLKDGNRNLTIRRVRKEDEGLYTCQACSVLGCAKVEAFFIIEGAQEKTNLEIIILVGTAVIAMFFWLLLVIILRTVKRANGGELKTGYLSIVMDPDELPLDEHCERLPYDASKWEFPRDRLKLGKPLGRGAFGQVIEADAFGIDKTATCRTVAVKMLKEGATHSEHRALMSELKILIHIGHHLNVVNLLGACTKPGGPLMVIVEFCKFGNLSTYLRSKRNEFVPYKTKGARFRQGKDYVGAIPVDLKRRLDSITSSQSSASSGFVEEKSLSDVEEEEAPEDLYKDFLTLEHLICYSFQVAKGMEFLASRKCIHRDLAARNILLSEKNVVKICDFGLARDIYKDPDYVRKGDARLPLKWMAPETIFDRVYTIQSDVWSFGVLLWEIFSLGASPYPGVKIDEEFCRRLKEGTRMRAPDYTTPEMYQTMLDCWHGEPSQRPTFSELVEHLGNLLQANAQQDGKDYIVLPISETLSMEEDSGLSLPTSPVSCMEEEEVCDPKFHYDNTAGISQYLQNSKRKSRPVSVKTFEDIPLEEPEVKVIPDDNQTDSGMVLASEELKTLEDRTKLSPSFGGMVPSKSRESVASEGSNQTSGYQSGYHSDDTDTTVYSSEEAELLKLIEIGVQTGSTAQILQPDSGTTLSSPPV

[4] = test system: AMPK
[5] = biological target: ALK-1 (Homo sapiens, UniProt P37023); conditions: in vitro kinase assays
Chain of ALK-1 (P37023 22-503, species assumed): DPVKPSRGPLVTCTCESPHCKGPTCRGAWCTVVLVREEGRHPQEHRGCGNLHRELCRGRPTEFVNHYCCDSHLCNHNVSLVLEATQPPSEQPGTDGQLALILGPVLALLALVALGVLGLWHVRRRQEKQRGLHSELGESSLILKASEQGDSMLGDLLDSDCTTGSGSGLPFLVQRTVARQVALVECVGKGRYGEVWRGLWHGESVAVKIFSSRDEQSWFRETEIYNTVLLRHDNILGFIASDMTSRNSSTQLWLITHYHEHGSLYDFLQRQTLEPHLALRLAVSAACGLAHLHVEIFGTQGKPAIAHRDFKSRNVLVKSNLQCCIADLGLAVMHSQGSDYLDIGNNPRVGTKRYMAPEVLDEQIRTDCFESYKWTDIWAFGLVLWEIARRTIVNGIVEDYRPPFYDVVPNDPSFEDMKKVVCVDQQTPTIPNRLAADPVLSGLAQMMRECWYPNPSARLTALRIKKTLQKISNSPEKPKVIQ

[6] = biological target: PDGFRβ (Homo sapiens, UniProt P09619)
Chain of PDGFRβ (P09619 33-1106, species assumed): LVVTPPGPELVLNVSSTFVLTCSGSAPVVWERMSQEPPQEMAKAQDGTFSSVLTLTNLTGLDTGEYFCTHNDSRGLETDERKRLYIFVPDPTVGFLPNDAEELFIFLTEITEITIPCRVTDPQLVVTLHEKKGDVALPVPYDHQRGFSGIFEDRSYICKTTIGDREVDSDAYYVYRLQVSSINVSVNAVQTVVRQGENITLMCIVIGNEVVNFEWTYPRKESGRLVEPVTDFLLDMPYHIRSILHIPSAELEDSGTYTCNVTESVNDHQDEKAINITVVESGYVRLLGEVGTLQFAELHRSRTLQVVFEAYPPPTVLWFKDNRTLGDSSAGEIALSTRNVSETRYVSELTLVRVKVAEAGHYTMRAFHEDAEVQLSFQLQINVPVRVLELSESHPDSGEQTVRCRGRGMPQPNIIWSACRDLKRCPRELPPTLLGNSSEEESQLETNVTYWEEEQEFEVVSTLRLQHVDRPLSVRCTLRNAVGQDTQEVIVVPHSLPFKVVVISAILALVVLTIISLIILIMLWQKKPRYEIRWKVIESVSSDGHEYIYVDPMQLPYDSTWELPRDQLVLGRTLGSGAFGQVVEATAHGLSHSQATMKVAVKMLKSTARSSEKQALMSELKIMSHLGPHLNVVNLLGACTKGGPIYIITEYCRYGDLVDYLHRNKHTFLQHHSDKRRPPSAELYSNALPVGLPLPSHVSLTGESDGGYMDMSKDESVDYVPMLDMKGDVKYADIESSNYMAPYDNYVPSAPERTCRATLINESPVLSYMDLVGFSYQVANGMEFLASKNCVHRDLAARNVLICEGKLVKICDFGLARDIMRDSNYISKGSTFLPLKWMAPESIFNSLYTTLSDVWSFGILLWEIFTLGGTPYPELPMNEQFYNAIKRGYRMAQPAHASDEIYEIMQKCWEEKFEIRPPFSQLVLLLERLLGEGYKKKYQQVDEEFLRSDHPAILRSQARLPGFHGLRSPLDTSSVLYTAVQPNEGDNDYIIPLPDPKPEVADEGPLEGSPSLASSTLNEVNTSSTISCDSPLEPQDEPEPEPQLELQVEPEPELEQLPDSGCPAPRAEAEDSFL

[7] = biological target: ALK-3 (Homo sapiens, UniProt P36894); conditions: in vitro kinase assays
Chain of ALK-3 (P36894 24-532, species assumed): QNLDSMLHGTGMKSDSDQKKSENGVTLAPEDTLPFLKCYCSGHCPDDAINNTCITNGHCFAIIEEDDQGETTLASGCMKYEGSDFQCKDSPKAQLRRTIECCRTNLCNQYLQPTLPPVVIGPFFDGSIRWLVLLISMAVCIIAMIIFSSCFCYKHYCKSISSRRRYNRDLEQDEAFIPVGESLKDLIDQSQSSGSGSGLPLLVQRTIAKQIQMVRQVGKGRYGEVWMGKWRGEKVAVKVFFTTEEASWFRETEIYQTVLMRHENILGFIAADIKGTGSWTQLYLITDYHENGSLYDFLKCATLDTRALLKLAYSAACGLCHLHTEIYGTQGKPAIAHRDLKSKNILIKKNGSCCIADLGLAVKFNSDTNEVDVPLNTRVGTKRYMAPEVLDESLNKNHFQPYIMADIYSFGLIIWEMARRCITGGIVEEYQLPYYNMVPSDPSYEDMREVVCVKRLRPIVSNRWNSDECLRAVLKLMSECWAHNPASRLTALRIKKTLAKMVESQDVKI

[8] = test system: rodent GSK3-β homologs
[9] = test system: Wnt-mediated transcription; conditions: read-out: IC50, inhibition of Wnt-mediated transcription

CC(C)Oc1ccc(-c2cnc3c(-c4ccnc5ccccc45)cnn3c2)cc1 [DMH-1, 4-[6-[4-(1-Methylethoxy)phenyl]pyrazolo[1,5-a]pyrimidin-3-yl]-quinoline]
inhibition of ALK5 [1]: no significant inhibition
BMP4-induced phosphorylation of Smads 1, 5 and 8 [2]: Blocks
inhibition of KDR (VEGFR-2) [3]: no significant inhibition
inhibition of AMPK [4]: no significant inhibition
selectivity for ALK-2 over ALK-1 [5]: 6 fold
inhibition of PDGFRβ [6]: no significant inhibition
selectivity for ALK-2 over ALK-3 [7]: 19 fold

Cc1c[nH]c(-c2cnc(NCCNc3ccc(C#N)cn3)nc2-c2ccc(Cl)cc2Cl)n1 [CHIR99021, 6-(2-(4-(2,4-dichlorophenyl)-5-(4-methyl-1H-imidazol-2-yl)pyrimidin-2-ylamino)ethylamino) nicotinonitrile]
IC50 values against rodent GSK3-β homologs [8]: nanomolar

Cc1cc(-c2ccc(CC(=O)Nc3ccc(-c4cccnc4)cc3)cc2)ccn1 [Wnt-059, 4-(2-Methyl-4-pyridinyl)-N-[4-(3-pyridinyl)phenyl]benzeneacetamide]
IC50 [9]: 0.074 nM
